Measurements taken from patent US20120258980A1, “Antibacterial Agent for Drug-Resistant Bacteria, Method for Screening for Same, and Use of Same” (priority 2009, published 2012).
≈ marks a conversion by molar mass, not a printed value.

Test system: VISA clinical isolates of MRSA (VI-MRSA) and of MSSA (VI-MSSA)
Assay: microbe, parasite or virus in culture
Format: cell-based, Staphylococcus aureus
Experimental: Each of the bacterial strains listed in Table 1-1 was shake-cultured at 37° C. overnight in 4 mL of a medium (Tryptical Soy Broth: TSB, product of Becton Dickinson and Company). FDA209P was used as a control.
After completion of culturing, the resultant culture was suspended in a cation-adjusted Mueller Hinton Broth (CAMHB, product of Becton Dickinson and Company). Then, the obtained bacterial culture was adjusted in absorbance with the CAMHB so that the absorbance at 578 nm of the bacterial culture was adjusted to 0.3 measured by an absorption spectrometer. In addition, the resultant bacterial culture was 500-fold diluted with the CAMHB.
Each of the 500-fold diluted, pre-cultured bacterial cultures was added at 50 μL/well to the CAMHB containing the quinolones and the nybomycins at various concentrations (50 μL/well), followed by statically culturing at 37° C. overnight.
After completion of culturing, the growth of the bacteria was visually determined based on turbidity to measure MIC in each bacterial strain.
Here, the glycopeptides used were VCM and TEIC. The β-lactam used was OXA.

[1] = Staphylococcus aureus, 99/3700-W, VI-MRSA, The United Kingdom
[2] = Staphylococcus aureus, 99/3759-V, VI-MRSA, The United Kingdom
[3] = Staphylococcus aureus, 28160, VI-MRSA, South African Republic
[4] = Staphylococcus aureus, 98141, VI-MRSA, France
[5] = Staphylococcus aureus, A7 (JCSC4842), VI-MRSA, Taiwan
[6] = Staphylococcus aureus, AMC11094, VI-MRSA, Korea
[7] = Staphylococcus aureus, B7 (JCSC4852), VI-MRSA, Taiwan
[8] = Staphylococcus aureus, BR1, VI-MRSA, Brazil
[9] = Staphylococcus aureus, BR2, VI-MRSA, Brazil
[10] = Staphylococcus aureus, BR3, VI-MRSA, Brazil
[11] = Staphylococcus aureus, BR4, VI-MRSA, Brazil
[12] = Staphylococcus aureus, BR5, VI-MRSA, Brazil
[13] = Staphylococcus aureus, HIP06297, VI-MRSA, America
[14] = Staphylococcus aureus, HIP06854, VI-MRSA, America
[15] = Staphylococcus aureus, HIP07920, VI-MRSA, America
[16] = Staphylococcus aureus, HIP07930, VI-MRSA, America
[17] = Staphylococcus aureus, HIP08926, VI-MRSA, America
[18] = Staphylococcus aureus, HIP09143, VI-MRSA, America
[19] = Staphylococcus aureus, HIP09313, VI-MRSA, America
[20] = Staphylococcus aureus, HIP09433, VI-MRSA, America
[21] = Staphylococcus aureus, HIP09662, VI-MRSA, America
[22] = Staphylococcus aureus, HIP09735, VI-MRSA, America
[23] = Staphylococcus aureus, HIP09737, VI-MSSA, America
[24] = Staphylococcus aureus, HIP09740, VI-MRSA, America
[25] = Staphylococcus aureus, HIP10267, VI-MRSA, America
[26] = Staphylococcus aureus, HIP10540, VI-MRSA, America
[27] = Staphylococcus aureus, HIP12864, VI-MRSA, America
[28] = Staphylococcus aureus, HIP13036, VI-MRSA, America
[29] = Staphylococcus aureus, HIP13057, VI-MRSA, America
[30] = Staphylococcus aureus, IL (HIP7737), VI-MRSA, America
[31] = Staphylococcus aureus, JCSC7193, VI-MRSA, Thailand
[32] = Staphylococcus aureus, JCSC7195, VI-MRSA, Thailand
[33] = Staphylococcus aureus, JCSC7203, VI-MRSA, Thailand
[34] = Staphylococcus aureus, LIM2, VI-MRSA, France
[35] = Staphylococcus aureus, LY-1999-01, VI-MSSA, Oman
[36] = Staphylococcus aureus, LY-1999-03, VI-MRSA, Oman
[37] = Staphylococcus aureus, MI (HIP5827), VI-MRSA, America
[38] = Staphylococcus aureus, MRSA / MSSA / NRS 76 / VISA, NRS76, VI-MSSA, America
[39] = Staphylococcus aureus, MRSA / MSSA / NRS 79 / VISA, NRS79, VI-MRSA, America
[40] = Staphylococcus aureus, MRSA / MSSA / NRS 118 / VISA, NRS118, VI-MRSA, America
[41] = Staphylococcus aureus, MRSA / MSSA / NRS 126 / VISA, NRS126, VI-MRSA, America
[42] = Staphylococcus aureus, Mu3, VI-MRSA, Japan
[43] = Staphylococcus aureus, Mu50, VI-MRSA, Japan
[44] = Staphylococcus aureus, NJ (HIP5836), VI-MRSA, America
[45] = Staphylococcus aureus, P1V44, VI-MSSA, Belgium
[46] = Staphylococcus aureus, PC, VI-MRSA, America
[47] = Staphylococcus aureus, SA MER-S6, VI-MSSA, France
[48] = Staphylococcus aureus, SA MER-S12, VI-MSSA, France
[49] = Staphylococcus aureus, SA MER-S20, VI-MSSA, France

Cc1cc(=O)n(C)c2c3c4c(cc12)c(C)cc(=O)n4CO3 [DNM, deoxynybomycin] showed an MIC [1] of 0.25 µg/mL (≈ 0.886 µM), an MIC [2] of 1 µg/mL (≈ 3.54 µM) and an MIC [3] of 0.125 µg/mL (≈ 0.443 µM). It also gave an MIC [4] of 0.125 µg/mL (≈ 0.443 µM), an MIC [5] of no more than 0.063 µg/mL and an MIC [6] of 0.125 µg/mL (≈ 0.443 µM). For the same compound, the MIC [7] was 0.125 µg/mL (≈ 0.443 µM), the MIC [8] was 0.25 µg/mL (≈ 0.886 µM) and the MIC [9] was 0.125 µg/mL (≈ 0.443 µM). It also gave an MIC [10] of 0.125 µg/mL (≈ 0.443 µM), an MIC [11] of 0.25 µg/mL (≈ 0.886 µM) and an MIC [12] of 0.25 µg/mL (≈ 0.886 µM). The MIC [13] was 0.125 µg/mL (≈ 0.443 µM), the MIC [14] was 0.5 µg/mL (≈ 1.77 µM) and the MIC [15] was 0.25 µg/mL (≈ 0.886 µM). For the same compound, the MIC [16] was 0.5 µg/mL (≈ 1.77 µM), the MIC [17] was 0.5 µg/mL (≈ 1.77 µM) and the MIC [18] was 0.5 µg/mL (≈ 1.77 µM). The MIC [19] was 0.125 µg/mL (≈ 0.443 µM), the MIC [20] was 0.5 µg/mL (≈ 1.77 µM) and the MIC [21] was 0.25 µg/mL (≈ 0.886 µM). It also gave an MIC [22] of 0.5 µg/mL (≈ 1.77 µM), an MIC [23] of 1 µg/mL (≈ 3.54 µM) and an MIC [24] of 0.25 µg/mL (≈ 0.886 µM). The MIC [25] was 0.25 µg/mL (≈ 0.886 µM), the MIC [26] was no more than 0.063 µg/mL and the MIC [27] was 0.125 µg/mL (≈ 0.443 µM). For the same compound, the MIC [28] was 0.25 µg/mL (≈ 0.886 µM), the MIC [29] was 0.125 µg/mL (≈ 0.443 µM) and the MIC [30] was 1 µg/mL (≈ 3.54 µM). It also gave an MIC [31] of 0.33 µg/mL (≈ 1.17 µM), an MIC [32] of 0.16 µg/mL (≈ 0.567 µM) and an MIC [33] of 0.16 µg/mL (≈ 0.567 µM). It also gave an MIC [34] of 0.25 µg/mL (≈ 0.886 µM), an MIC [35] of no more than 0.063 µg/mL and an MIC [36] of no more than 0.063 µg/mL. It also gave an MIC [37] of no more than 0.063 µg/mL, an MIC [38] of no more than 0.063 µg/mL and an MIC [39] of 1 µg/mL (≈ 3.54 µM). For the same compound, the MIC [40] was 2 µg/mL (≈ 7.08 µM), the MIC [41] was 0.5 µg/mL (≈ 1.77 µM) and the MIC [42] was 0.5 µg/mL (≈ 1.77 µM). For the same compound, the MIC [43] was 0.25 µg/mL (≈ 0.886 µM), the MIC [44] was 0.25 µg/mL (≈ 0.886 µM) and the MIC [45] was 0.5 µg/mL (≈ 1.77 µM). It also gave an MIC [46] of 0.125 µg/mL (≈ 0.443 µM), an MIC [47] greater than 64 µg/mL and an MIC [48] greater than 64 µg/mL. For the same compound, the MIC [49] was greater than 64 µg/mL.
C[C@H]1COc2c(N3CCN(C)CC3)c(F)cc3c(=O)c(C(=O)O)cn1c23 [LVFX, levofloxacin] gave an MIC [1] of 16 µg/mL (≈ 44.3 µM), an MIC [2] of 16 µg/mL (≈ 44.3 µM) and an MIC [3] of 8 µg/mL (≈ 22.1 µM). It also gave an MIC [4] of 16 µg/mL (≈ 44.3 µM), an MIC [5] of 8 µg/mL (≈ 22.1 µM) and an MIC [6] of 16 µg/mL (≈ 44.3 µM). It also gave an MIC [7] of 8 µg/mL (≈ 22.1 µM), an MIC [8] of 16 µg/mL (≈ 44.3 µM) and an MIC [9] of 8 µg/mL (≈ 22.1 µM). For the same compound, the MIC [10] was 16 µg/mL (≈ 44.3 µM), the MIC [11] was 8 µg/mL (≈ 22.1 µM) and the MIC [12] was 16 µg/mL (≈ 44.3 µM). For the same compound, the MIC [13] was 4 µg/mL (≈ 11.1 µM), the MIC [14] was 16 µg/mL (≈ 44.3 µM) and the MIC [15] was 8 µg/mL (≈ 22.1 µM). For the same compound, the MIC [16] was 32 µg/mL (≈ 88.6 µM), the MIC [17] was 16 µg/mL (≈ 44.3 µM) and the MIC [18] was 32 µg/mL (≈ 88.6 µM). The MIC [19] was 8 µg/mL (≈ 22.1 µM), the MIC [20] was 32 µg/mL (≈ 88.6 µM) and the MIC [21] was 32 µg/mL (≈ 88.6 µM). It also gave an MIC [22] of 8 µg/mL (≈ 22.1 µM), an MIC [23] of 32 µg/mL (≈ 88.6 µM) and an MIC [24] of 32 µg/mL (≈ 88.6 µM). For the same compound, the MIC [25] was 32 µg/mL (≈ 88.6 µM), the MIC [26] was 8 µg/mL (≈ 22.1 µM) and the MIC [27] was 32 µg/mL (≈ 88.6 µM). For the same compound, the MIC [28] was 4 µg/mL (≈ 11.1 µM), the MIC [29] was 16 µg/mL (≈ 44.3 µM) and the MIC [30] was 32 µg/mL (≈ 88.6 µM). The MIC [31] was 16 µg/mL (≈ 44.3 µM), the MIC [32] was 32 µg/mL (≈ 88.6 µM) and the MIC [33] was 16 µg/mL (≈ 44.3 µM). For the same compound, the MIC [34] was 32 µg/mL (≈ 88.6 µM), the MIC [35] was 4 µg/mL (≈ 11.1 µM) and the MIC [36] was 4 µg/mL (≈ 11.1 µM). The MIC [37] was 32 µg/mL (≈ 88.6 µM), the MIC [38] was 16 µg/mL (≈ 44.3 µM) and the MIC [39] was 64 µg/mL (≈ 177 µM). The MIC [40] was 32 µg/mL (≈ 88.6 µM), the MIC [41] was 4 µg/mL (≈ 11.1 µM) and the MIC [42] was 16 µg/mL (≈ 44.3 µM). The MIC [43] was 8 µg/mL (≈ 22.1 µM), the MIC [44] was 16 µg/mL (≈ 44.3 µM) and the MIC [45] was 4 µg/mL (≈ 11.1 µM). For the same compound, the MIC [46] was 8 µg/mL (≈ 22.1 µM), the MIC [47] was 0.5 µg/mL (≈ 1.38 µM) and the MIC [48] was 0.5 µg/mL (≈ 1.38 µM). It also gave an MIC [49] of 0.125 µg/mL (≈ 0.346 µM).
